Literature values in patent US20070224292A1, “Extended effect ergogenic drink” (priority 2006, published 2007).
Where two headings read alike, the source gives them in different places. Each block holds one compound with its values, some of them ahead of it.

How the values were obtained:
[1] = first fifteen minutes of exercise
[2] = visual monitoring test simulating night driving
[3] = during exercise in normal subjects
[4] = after two hours; males (but not females)
[5] = 200 to 400 mcg chromium three times per day, polynicotinate or picolinate form
[6] = three women; 1 mg chromium with 100 mg vitamin C versus 1 mg chromium without vitamin C
[7] = animals; given at the same time as vitamin C
[8] = for time to reach peak serum concentrations: following ingestion
[9] = immediate-release nicotinic acid
[10] = in vivo

Compound: Cn1c(=O)c2c(ncn2C)n(C)c1=O [Caffeine]
time to reach peak levels in the bloodstream (absorbed through stomach and small intestine): 15 to 45 min
half-life, women taking oral contraceptives (women taking oral contraceptives): up to 12 hours
reduction of the loss of glycogen [1]: fifty
effect on attention lapses [2]: prevent attention lapses
circulating free fatty acids and glycerol [3]: increase circulating free fatty acids and glycerol
CNS stimulation compared to placebo [4]: lower CNS (Central Nervous System) stimulation

Compound: [Cr] [Chromium]
effect on insulin sensitivity [5]: improve insulin sensitivity
plasma levels of chromium [6]: higher plasma levels of chromium
chromium uptake [7]: enhanced

time to reach peak serum concentrations ([8]; extended-release form): 4 to 5 h
half-life ([8]; immediate release Niacin): approximately 1 hour
time to reach peak serum concentrations ([8]; immediate-release or crystalline form): approximately 45 minutes
duration of flushing [9]: up to one
time to onset of flushing following ingestion [9]: ≤ 20 min
Compound: O=C(O)c1cccnc1 [Niacin, Nicotinic acid]

Compound: Chromium Polynicotinate
effect on blood lipid levels [10]: lower blood lipid levels
